{
  "source": "patent US12318390B2",
  "about": "“Pharmaceutical composition for oral administration comprising aminopyrimidine derivative or its salt” (YUHAN CORPORATION, priority 2018, dated 2025)",
  "key": {"[1]": {"test": "Comparative pharmacokinetic test in normal rats", "assay_type": "in vivo, rats (SD rat)", "description": "(§1) Specifically, in the normal rats and the esomeprazole-treated rats, maximum blood concentrations (Cmax) and areas under the blood concentration curve (AUClast) were compared with each other, respectively, to evaluate the absorption of drugs in animals."}, "[2]": {"test": "Pharmacokinetic test for Lazertinib mesylate and free-base in beagle dogs", "assay_type": "in vivo", "details": "beagle dog", "description": "The results (the maximum blood concentration and the area under the blood concentration curve) of the comparative pharmacokinetic test obtained therefrom were shown in Table 8 and FIG. 7."}, "[3]": {"test": "Comparative pharmacokinetic test in esomeprazole-treated rats", "assay_type": "in vivo, rats (SD rat)", "details": "for area under the blood concentration curve reduced compared with the normal rats / maximum blood concentration reduced compared with the normal rats: esomeprazole-treated rats vs normal rats", "description": "as §1\nThe results (the maximum blood concentration and the area under the blood concentration curve) of the comparative pharmacokinetic test obtained therefrom were shown in Table 7 and FIGS. 5 and 6."}, "[4]": {"test": "Solubility test", "assay_type": "physicochemical", "details": "thermodynamic from solid, 37° C.", "experimental": "In addition, 100 mg of Lazertinib free-base (prepared in the same manner as the method described in WO 2016/060443) was tested under the same conditions."}, "[5]": {"test": "Stability test under stressed condition", "assay_type": "physicochemical", "details": "for PXRD pattern: stressed condition 60 ± 2° C., 75 ± 5% RH; for Purity: HPLC"}, "[6]": {"test": "Stability test under accelerated condition", "assay_type": "physicochemical", "details": "for Purity: HPLC"}, "[7]": {"details": "esomeprazole-treated rats, oral 30 mg/kg"}, "[8]": {"details": "Normal rat, oral 30 mg/5 mL/kg in 0.5% methyl cellulose"}, "[9]": {"details": "stressed condition, Start to 4 weeks"}, "[10]": {"details": "oral 5 mg/2 mL/kg in 0.5% methyl cellulose"}, "[11]": {"details": "Esomeprazole-treated rat (5 mg/kg i.v. for 3 days), oral 30 mg/5 mL/kg"}, "[12]": {"details": "accelerated condition, 3 months"}, "[13]": {"details": "accelerated condition, 6 months"}, "[14]": {"details": "accelerated condition, Start to 6 months"}},
  "data": [
    {"molecule": "C=CC(=O)Nc1cc(Nc2nccc(-n3cc(CN(C)C)c(-c4ccccc4)n3)n2)c(OC)cc1N1CCOCC1", "note": "[Lazertinib free-base, N-(5-(4-(4-((dimethylamino)methyl)-3-phenyl-1H-pyrazol-1-yl)pirimidine-2-ylamino)-4-methoxy-2-morpholinophenyl)acrylamide]", "values": [
      {"measurement": "AUC(0-t)", "setting": "[1]; male, SD, blood, 30 mg/kg, Normal rat, oral 30 mg/5 mL/kg in 0.5% methyl cellulose, read-out: Area under the blood concentration curve (AUClast)", "result": 7290, "unit": "ng·h/mL"},
      {"measurement": "Cmax", "setting": "[1]; male, SD, blood, 30 mg/kg, Normal rat, oral 30 mg/5 mL/kg in 0.5% methyl cellulose, read-out: Maximum blood concentration (Cmax)", "result": 726, "unit": "ng/mL"},
      {"measurement": "area under the blood concentration curve lower than Lazertinib mesylate", "setting": "[1]; normal rats, oral 30 mg/kg", "result": 10.4, "unit": "%"},
      {"measurement": "maximum blood concentration lower than Lazertinib mesylate", "setting": "[1]; normal rats, oral 30 mg/kg", "result": 11.0, "unit": "%"},
      {"measurement": "area under the blood concentration curve lower than Lazertinib mesylate", "setting": "[2]; oral 5 mg/kg", "result": 50.4, "unit": "%"},
      {"measurement": "maximum blood concentration lower than Lazertinib mesylate", "setting": "[2]; oral 5 mg/kg", "result": 40.1, "unit": "%"},
      {"measurement": "AUC(0-t)", "setting": "[2]; male, blood, 5 mg/kg, oral 5 mg/2 mL/kg in 0.5% methyl cellulose, read-out: Area under the blood concentration curve (AUClast)", "result": 379, "unit": "ng·h/mL"},
      {"measurement": "Cmax", "setting": "[2]; male, blood, 5 mg/kg, oral 5 mg/2 mL/kg in 0.5% methyl cellulose, read-out: Maximum blood concentration (Cmax)", "result": 80.7, "unit": "ng/mL"},
      {"measurement": "area under the blood concentration curve reduced compared with the normal rats", "setting": "[3]", "result": 63.8, "unit": "%"},
      {"measurement": "maximum blood concentration reduced compared with the normal rats", "setting": "[3]", "result": 69.3, "unit": "%"},
      {"measurement": "area under the blood concentration curve lower than Lazertinib mesylate", "setting": "[3]; [7]", "result": 49.4, "unit": "%"},
      {"measurement": "maximum blood concentration lower than Lazertinib mesylate", "setting": "[3]; [7]", "result": 47.8, "unit": "%"},
      {"measurement": "AUC(0-t)", "setting": "[3]; male, SD, blood, Esomeprazole-treated rat (i.v. for 3 days), oral 30 mg/5 mL/kg, read-out: Area under the blood concentration curve (AUClast)", "result": 2640, "unit": "ng·h/mL"},
      {"measurement": "Cmax", "setting": "[3]; male, SD, blood, Esomeprazole-treated rat (i.v. for 3 days), oral 30 mg/5 mL/kg, read-out: Maximum blood concentration (Cmax)", "result": 223, "unit": "ng/mL"},
      {"measurement": "solubility at 12 h", "setting": "[4]; fassgf or other biorelevant, Artificial gastric juice (FaSSGF)", "result": 1500, "unit": "µg/mL"},
      {"measurement": "solubility at 12 h", "setting": "[4]; organic solvent or mixture, Ethanol", "result": 599, "unit": "µg/mL"},
      {"measurement": "solubility at 12 h", "setting": "[4]; pH 1.2 buffer solution, simulated gastric fluid, pH 1.2 buffer", "result": 4400, "unit": "µg/mL"},
      {"measurement": "solubility at 12 h", "setting": "[4]; pH 2.0 buffer solution, simulated gastric fluid, pH 2.0 buffer", "result": 3700, "unit": "µg/mL"},
      {"measurement": "solubility at 12 h", "setting": "[4]; pH 3.0 buffer solution, aqueous buffer, pH 3.0 buffer", "result": 1900, "unit": "µg/mL"},
      {"measurement": "solubility at 12 h", "setting": "[4]; pH 4.0 buffer solution, aqueous buffer, pH 4.0 buffer", "result": 1000, "unit": "µg/mL"},
      {"measurement": "solubility at 12 h", "setting": "[4]; pH 5.0 buffer solution, aqueous buffer, pH 5.0 buffer", "result": 10, "unit": "µg/mL"},
      {"measurement": "solubility at 12 h", "setting": "[4]; pH 6.0 buffer solution, aqueous buffer, pH 6.0 buffer", "result": 3, "unit": "µg/mL"},
      {"measurement": "solubility at 12 h", "setting": "[4]; pH 7.0 buffer solution, aqueous buffer, pH 7.0 buffer", "result": 1, "unit": "µg/mL"},
      {"measurement": "solubility at 12 h", "setting": "[4]; Artificial intestinal fluid (FaSSIF)", "result": 27, "unit": "µg/mL"},
      {"measurement": "solubility at 12 h", "setting": "[4]; water", "result": 1, "unit": "µg/mL"}
    ]},
    {"molecule": "mesylic acid salt of N-(5-(4-(4-((dimethylamino)methyl)-3-phenyl-1H-pyrazol-1-yl)pirimidine-2-ylamino)-4-methoxy-2-morpholinophenyl)acrylamide [Lazertinib mesylate]", "values": [
      {"measurement": "Area under the blood concentration curve (AUClast)", "setting": "[1]; [8]", "result": 8139.0, "unit": "ng·h/mL"},
      {"measurement": "Maximum blood concentration (Cmax)", "setting": "[1]; [8]", "result": 815.6, "unit": "ng/mL"},
      {"measurement": "PXRD pattern", "setting": "[5]; 2 weeks", "result": "Same"},
      {"measurement": "PXRD pattern", "setting": "[5]; 4 weeks", "result": "Same"},
      {"measurement": "Appearance (color)", "setting": "[5]; stressed condition, 2 weeks", "result": "White"},
      {"measurement": "Content", "setting": "[5]; stressed condition, 2 weeks", "result": 97.7, "unit": "%"},
      {"measurement": "DSC Onset", "setting": "[5]; stressed condition, 2 weeks", "result": 214, "unit": "°C"},
      {"measurement": "Water Content", "setting": "[5]; stressed condition, 2 weeks", "result": 2.71, "unit": "%"},
      {"measurement": "Purity", "setting": "[5]; stressed condition, 2 weeks", "result": 99.3, "unit": "%"},
      {"measurement": "Appearance (color)", "setting": "[5]; stressed condition, 4 weeks", "result": "White"},
      {"measurement": "Content", "setting": "[5]; stressed condition, 4 weeks", "result": 98.9, "unit": "%"},
      {"measurement": "DSC Onset", "setting": "[5]; stressed condition, 4 weeks", "result": 214, "unit": "°C"},
      {"measurement": "Water Content", "setting": "[5]; stressed condition, 4 weeks", "result": 2.70, "unit": "%"},
      {"measurement": "Purity", "setting": "[5]; stressed condition, 4 weeks", "result": 99.3, "unit": "%"},
      {"measurement": "Appearance (color)", "setting": "[5]; stressed condition, Start", "result": "White"},
      {"measurement": "Content", "setting": "[5]; stressed condition, Start", "result": 98.8, "unit": "%"},
      {"measurement": "DSC Onset", "setting": "[5]; stressed condition, Start", "result": 214, "unit": "°C"},
      {"measurement": "Water Content", "setting": "[5]; stressed condition, Start", "result": 2.48, "unit": "%"},
      {"measurement": "Content Variation", "setting": "[5]; [9]", "result": "+0.1%"},
      {"measurement": "Purity Variation", "setting": "[5]; [9]", "result": "+0.1%"},
      {"measurement": "Water Content Variation", "setting": "[5]; [9]", "result": "+0.22%"},
      {"measurement": "Purity", "setting": "[5]; stressed condition, Start", "result": 99.2, "unit": "%"},
      {"measurement": "Area under the blood concentration curve (AUClast)", "setting": "[2]; [10]", "result": 811.5, "unit": "ng·h/mL"},
      {"measurement": "Maximum blood concentration (Cmax)", "setting": "[2]; [10]", "result": 134.7, "unit": "ng/mL"},
      {"measurement": "Area under the blood concentration curve (AUClast)", "setting": "[3]; [11]", "result": 5210.9, "unit": "ng·h/mL"},
      {"measurement": "Maximum blood concentration (Cmax)", "setting": "[3]; [11]", "result": 427.5, "unit": "ng/mL"},
      {"measurement": "area under the blood concentration curve reduced compared with the normal rats", "setting": "[3]", "result": 36.0, "unit": "%"},
      {"measurement": "maximum blood concentration reduced compared with the normal rats", "setting": "[3]", "result": 47.6, "unit": "%"},
      {"measurement": "PXRD pattern", "setting": "[6]; accelerated condition 40 ± 2° C., 75 ± 5% RH, 1 month", "result": "Same"},
      {"measurement": "Appearance (color)", "setting": "[6]; accelerated condition, 1 month", "result": "White"},
      {"measurement": "Content", "setting": "[6]; accelerated condition, 1 month", "result": 98.9, "unit": "%"},
      {"measurement": "DSC Onset", "setting": "[6]; accelerated condition, 1 month", "result": 214, "unit": "°C"},
      {"measurement": "Water Content", "setting": "[6]; accelerated condition, 1 month", "result": 2.73, "unit": "%"},
      {"measurement": "Purity", "setting": "[6]; accelerated condition, 1 month", "result": 99.3, "unit": "%"},
      {"measurement": "Appearance (color)", "setting": "[6]; [12]", "result": "White"},
      {"measurement": "Content", "setting": "[6]; [12]", "result": 98.9, "unit": "%"},
      {"measurement": "DSC Onset", "setting": "[6]; [12]", "result": 214, "unit": "°C"},
      {"measurement": "PXRD pattern", "setting": "[6]; [12]", "result": "Same"},
      {"measurement": "Water Content", "setting": "[6]; [12]", "result": 3.19, "unit": "%"},
      {"measurement": "Purity", "setting": "[6]; [12]", "result": 99.3, "unit": "%"},
      {"measurement": "Appearance (color)", "setting": "[6]; [13]", "result": "White"},
      {"measurement": "Content", "setting": "[6]; [13]", "result": 99.1, "unit": "%"},
      {"measurement": "DSC Onset", "setting": "[6]; [13]", "result": 214, "unit": "°C"},
      {"measurement": "PXRD pattern", "setting": "[6]; [13]", "result": "Same"},
      {"measurement": "Water Content", "setting": "[6]; [13]", "result": 3.01, "unit": "%"},
      {"measurement": "Purity", "setting": "[6]; [13]", "result": 99.3, "unit": "%"},
      {"measurement": "Appearance (color)", "setting": "[6]; accelerated condition, Start", "result": "White"},
      {"measurement": "Content", "setting": "[6]; accelerated condition, Start", "result": 98.8, "unit": "%"},
      {"measurement": "DSC Onset", "setting": "[6]; accelerated condition, Start", "result": 214, "unit": "°C"},
      {"measurement": "Water Content", "setting": "[6]; accelerated condition, Start", "result": 2.48, "unit": "%"},
      {"measurement": "Content Variation", "setting": "[6]; [14]", "result": "+0.3%"},
      {"measurement": "Purity Variation", "setting": "[6]; [14]", "result": "+0.1%"},
      {"measurement": "Water Content Variation", "setting": "[6]; [14]", "result": "+0.53%"},
      {"measurement": "Purity", "setting": "[6]; accelerated condition, Start", "result": 99.2, "unit": "%"}
    ]}
  ]
}
